Reference: US20240287154A1, “MC3R AGONIST PEPTIDES” (The Regents of the University of Michigan, priority 2021, published 2024)
pEC50: −log10 of the molar value. Non-standard residues stand in square brackets, D forms with d. Residues, ends and D or L forms follow the SMILES beside them. Phe(4-Br) = N[C@@H](Cc1ccc(Br)cc1)C(=O)O; Phe(4-F) = N[C@@H](Cc1ccc(F)cc1)C(=O)O; Phe(4-I) = N[C@@H](Cc1ccc(I)cc1)C(=O)O; 2Nal = N[C@@H](Cc1ccc2ccccc2c1)C(=O)O; Nle = CCCC[C@H](N)C(=O)O; dAbu = CC[C@@H](N)C(=O)O

What was measured:
[1] = target: human MC4R (Homo sapiens, UniProt P32245); assay: Intracellular cAMP levels in live cells, MC3R selectivity relative to MC4R; format: cell-based; details: cAMP assays in human MC3R and human MC4R stable cell lines
human MC4R, sequence (P32245 whole entry): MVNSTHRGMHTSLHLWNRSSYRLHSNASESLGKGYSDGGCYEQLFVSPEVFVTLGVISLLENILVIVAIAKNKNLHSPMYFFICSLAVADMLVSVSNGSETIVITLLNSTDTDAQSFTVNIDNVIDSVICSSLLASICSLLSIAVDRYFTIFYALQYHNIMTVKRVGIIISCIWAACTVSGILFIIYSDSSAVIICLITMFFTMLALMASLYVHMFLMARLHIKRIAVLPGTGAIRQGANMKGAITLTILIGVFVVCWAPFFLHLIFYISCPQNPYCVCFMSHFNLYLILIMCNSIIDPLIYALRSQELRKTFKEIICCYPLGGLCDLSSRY

[2] = target: T1, human MC3R (Homo sapiens, UniProt P41968); assay: Intracellular cAMP levels in live cells, MC3R agonist activity; format: cell-based; details: cAMP split-luciferase reporter cell line stably expressing human MC3R; direct agonist effect, measurement window 1
T1 construct: expressed in transfected cells
T1 sequence (P41968 whole entry): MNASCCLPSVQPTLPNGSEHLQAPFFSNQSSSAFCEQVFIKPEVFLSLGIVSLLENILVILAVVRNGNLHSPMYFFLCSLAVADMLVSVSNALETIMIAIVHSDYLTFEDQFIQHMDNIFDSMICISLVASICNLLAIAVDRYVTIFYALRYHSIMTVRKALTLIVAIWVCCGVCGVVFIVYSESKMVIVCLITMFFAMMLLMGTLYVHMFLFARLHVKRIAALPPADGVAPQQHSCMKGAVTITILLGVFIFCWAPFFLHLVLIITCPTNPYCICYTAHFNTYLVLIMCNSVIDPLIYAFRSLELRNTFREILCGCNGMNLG
Procedure: The stable cell lines were grown and maintained in selection media consisting of Dulbecco's modified Eagle media (DMEM) with 4.5 g/l D-glucose, and 4 mM L-glutamine (Thermo Fisher Scientific, Waltham, MA), supplemented with 10% fetal bovine serum, 100 units/ml penicillin, 100 μg/ml streptomycin, 2.5 μg/ml amphotericin B, 200 μg/ml hygromycin B (for positive selection of the GScAMP22f luciferase reporter), and Geneticin™ (G418) 700 μg/ml (for MC3R or MC4R selection). Actual serum concentration during the assay is estimated to be about 1%. Cell line identity is routinely verified by qPCR and MC3R- and MC4R-specific oligonucleotides.
The assay for the determination of the CAMP response in live cells was described previously. […] Ccells were seeded at a density of 20,000 cells per well using 384-well poly-D lysine-coated, clear bottom, and black-wall assay plates (Corning Inc. Corning, NJ). Cells were allowed to attach to the plates for 18 to 24 h after which growth media was removed and 20 ul of 4% D-luciferin (Promega) in CO2 independent, serum-free medium (Thermo Fisher Scientific) was added to each well. […] Intracellular cAMP levels were measured using an FDSS 7000EX Functional Drug Screening System (Hamamatsu Photonics, Hamamatsu, Japan) in the Center for Chemical Genomics at the Life Sciences Institute. This instrument allowed the in-line addition of test-peptides and receptor agonists while simultaneously acquiring the luminescence signal from live cells. […] A submaximal forskolin (20 μM) concentration was also included to serve as a normalization reference to account for cell number variations and differences in assay transducer efficiency between cell lines.
With this set up it was possible to evaluate the direct agonist effect of the test-peptides on the MC3R and MC4R cell lines during measurement window 1, while the antagonist profile in the presence of EC90 α-MSH was determined on measurement window 2. […] EC50 or IC50 potency values were determined by non-linear regression by fitting the data to a sigmoid four-parameter variable slope model using the GraphPad Prism version 8.4 software package (San Diego CA).

Structure (SMILES)	MC3R selectivity (relative to MC4R) [1]	pEC50 [2]
CCCC[C@H](NC(=O)CNC(=O)COCCOCCNC(=O)CNC(=O)CCc1ccc(I)cc1)C(=O)N[C@H](C)C(=O)N[C@@H](Cc1c[nH]cn1)C(=O)N[C@@H](Cc1ccccc1)C(=O)N[C@@H](CCCNC(=N)N)C(=O)N[C@H](Cc1c[nH]c2ccccc12)C(=O)N[C@@H](CC(=O)O)C(=O)N[C@@H](CCCNC(=N)N)C(=O)N[C@H](Cc1ccccc1)C(=O)NCC(=O)O [CTX-1154, Gly-Nle-D-Ala-His-Phe-Arg-D-Trp-Asp-Arg-D-Phe-Gly]	1070	8.24
CCCC[C@H](NC(C)=O)C(=O)N[C@H](C)C(=O)N[C@@H](Cc1c[nH]cn1)C(=O)N[C@@H](Cc1ccccc1)C(=O)N[C@@H](CCCNC(=N)N)C(=O)N[C@H](Cc1c[nH]c2ccccc12)C(=O)NCC(=O)N[C@@H](CCCCN)C(=O)N1CCC[C@H]1C(=O)N[C@H](C(N)=O)C(C)C [CTX-1164, Nle-D-Ala-His-Phe-Arg-D-Trp-Gly-Lys-Pro-Val] (Ac-[Nle][dA]HFR[dW]GKPV-NH2)	83	8.82
CCCC[C@H](NC(C)=O)C(=O)N[C@H](C)C(=O)N[C@@H](Cc1c[nH]cn1)C(=O)N[C@@H](Cc1ccc(Br)cc1)C(=O)N[C@@H](CCCNC(=N)N)C(=O)N[C@H](Cc1c[nH]c2ccccc12)C(=O)N[C@@H](CC(=O)O)C(=O)N[C@@H](CCCNC(=N)N)C(=O)N[C@@H](Cc1ccccc1)C(=O)NCC(=O)O [CTX-1165, Nle-D-Ala-His-Phe(4-Br)-Arg-D-Trp-Asp-Arg-Phe-Gly] (Ac-[Nle][dA]H[Phe(4-Br)]R[dW]DRFG-OH)	5598	8.52
CCCC[C@H](NC(C)=O)C(=O)N[C@H](C)C(=O)N[C@@H](Cc1c[nH]cn1)C(=O)N[C@@H](Cc1ccc(I)cc1)C(=O)N[C@@H](CCCNC(=N)N)C(=O)N[C@H](Cc1c[nH]c2ccccc12)C(=O)N[C@@H](CC(=O)O)C(=O)N[C@@H](CCCNC(=N)N)C(=O)N[C@@H](Cc1ccccc1)C(=O)NCC(=O)O [CTX-1167, Nle-D-Ala-His-Phe(4-I)-Arg-D-Trp-Asp-Arg-Phe-Gly] (Ac-[Nle][dA]H[Phe(4-I)]R[dW]DRFG-OH)	937	8.32
CCCC[C@H](NC(C)=O)C(=O)N[C@H](C)C(=O)N[C@@H](Cc1c[nH]cn1)C(=O)N[C@@H](Cc1ccc(I)cc1)C(=O)N[C@@H](CCCNC(=N)N)C(=O)N[C@H](Cc1c[nH]c2ccccc12)C(=O)N[C@@H](CC(=O)O)C(=O)N[C@@H](CCCNC(=N)N)C(=O)N[C@@H](Cc1ccccc1)C(N)=O [CTX-1169, Nle-D-Ala-His-Phe(4-I)-Arg-D-Trp-Asp-Arg-Phe] (Ac-[Nle][dA]H[Phe(4-I)]R[dW]DRF-NH2)	200	8.32
CCCC[C@H](NC(C)=O)C(=O)N[C@H](CC)C(=O)N[C@@H](Cc1c[nH]cn1)C(=O)N[C@@H](Cc1ccc(I)cc1)C(=O)N[C@@H](CCCNC(=N)N)C(=O)N[C@H](Cc1c[nH]c2ccccc12)C(=O)N[C@@H](CC(=O)O)C(=O)N[C@@H](CCCNC(=N)N)C(=O)N[C@@H](Cc1ccccc1)C(=O)NCC(=O)O [CTX-1191, Nle-D-Abu-His-Phe(4-I)-Arg-D-Trp-Asp-Arg-Phe-Gly] (Ac-[Nle][dAbu]H[Phe(4-I)]R[dW]DRFG-OH)	470	8.41
CCCC[C@H](NC(C)=O)C(=O)N[C@H](C)C(=O)N[C@@H](Cc1c[nH]cn1)C(=O)N[C@@H](Cc1ccc2ccccc2c1)C(=O)N[C@@H](CCCNC(=N)N)C(=O)N[C@H](Cc1c[nH]c2ccccc12)C(=O)N[C@@H](CC(=O)O)C(=O)N[C@@H](CCCNC(=N)N)C(=O)N[C@@H](Cc1ccccc1)C(=O)NCC(=O)O [CTX-1512, Nle-D-Ala-His-Nal(2')-Arg-D-Trp-Asp-Arg-Phe-Gly] (Ac-[Nle][dA]H[2Nal]R[dW]DRFG-OH)	804	7.88
CCCC[C@H](NC(C)=O)C(=O)N[C@H](C)C(=O)N[C@@H](Cc1c[nH]cn1)C(=O)N[C@@H](Cc1ccc(F)cc1)C(=O)N[C@@H](CCCNC(=N)N)C(=O)N[C@H](Cc1c[nH]c2ccccc12)C(=O)N[C@@H](CC(=O)O)C(=O)N[C@@H](CCCNC(=N)N)C(=O)N[C@@H](Cc1ccccc1)C(=O)NCC(=O)O [CTX-1518, Nle-D-Ala-His-Phe(4-F)-Arg-D-Trp-Asp-Arg-Phe-Gly] (Ac-[Nle][dA]H[Phe(4-F)]R[dW]DRFG-OH)	1,559	8.72
CCCC[C@H](NC(C)=O)C(=O)N[C@H](C)C(=O)N[C@@H](Cc1c[nH]cn1)C(=O)N[C@@H](Cc1ccccc1)C(=O)N[C@@H](CCCNC(=N)N)C(=O)N[C@H](Cc1c[nH]c2ccccc12)C(=O)N[C@@H](C)C(=O)N[C@@H](CCCNC(=N)N)C(=O)N[C@@H](Cc1ccccc1)C(=O)NCC(=O)O [CTX-1528, Nle-D-Ala-His-Phe-Arg-D-Trp-Ala-Arg-Phe-Gly] (Ac-[Nle][dA]HFR[dW]ARFG-OH)	182	8.72
CCCC[C@H](NC(C)=O)C(=O)N[C@H](C)C(=O)N[C@@H](Cc1c[nH]cn1)C(=O)N[C@@H](Cc1ccccc1)C(=O)N[C@@H](CCCNC(=N)N)C(=O)N[C@H](Cc1c[nH]c2ccccc12)C(=O)N[C@@H](Cc1ccccc1)C(=O)N[C@@H](CCCNC(=N)N)C(=O)N[C@@H](Cc1ccccc1)C(=O)NCC(=O)O [CTX-1529, Nle-D-Ala-His-Phe-Arg-D-Trp-Phe-Arg-Phe-Gly] (Ac-[Nle][dA]HFR[dW]FRFG-OH)	82	8.32
CCCC[C@H](NC(C)=O)C(=O)N[C@H](C)C(=O)N[C@@H](Cc1c[nH]cn1)C(=O)N[C@@H](Cc1ccccc1)C(=O)N[C@@H](CCCNC(=N)N)C(=O)N[C@H](Cc1c[nH]c2ccccc12)C(=O)N[C@H](Cc1ccccc1)C(=O)N[C@@H](CCCNC(=N)N)C(=O)N[C@@H](Cc1ccccc1)C(=O)NCC(=O)O [CTX-1531, Nle-D-Ala-His-Phe-Arg-D-Trp-D-Phe-Arg-Phe-Gly] (Ac-[Nle][dA]HFR[dW][dF]RFG-OH)	8	6.45
CCCC[C@H](NC(C)=O)C(=O)N[C@H](C)C(=O)N[C@@H](Cc1c[nH]cn1)C(=O)N[C@@H](Cc1ccc(I)cc1)C(=O)N[C@@H](CCCNC(=N)N)C(=O)N[C@H](Cc1c[nH]c2ccccc12)C(=O)NCC(N)=O [CTX-1543, Nle-D-Ala-His-Phe(4-I)-Arg-D-Trp-Gly] (Ac-[Nle][dA]H[Phe(4-I)]R[dW]G-NH2)	202	8.51
CSCC[C@H](NC(=O)[C@@H](N)C(C)C)C(=O)NCC(=O)N[C@@H](Cc1c[nH]cn1)C(=O)N[C@@H](Cc1ccccc1)C(=O)N[C@@H](CCCNC(=N)N)C(=O)N[C@H](Cc1c[nH]c2ccccc12)C(=O)N[C@@H](CC(=O)O)C(=O)N[C@@H](CCCNC(=N)N)C(=O)N[C@@H](Cc1ccccc1)C(=O)NCC(=O)O [CTX-1546, Val-Met-Gly-His-Phe-Arg-D-Trp-Asp-Arg-Phe-Gly] (H-VMGHFR[dW]DRFG-OH)	51	8.77
CSCC[C@H](N)C(=O)NCC(=O)N[C@@H](Cc1c[nH]cn1)C(=O)N[C@@H](Cc1ccccc1)C(=O)N[C@@H](CCCNC(=N)N)C(=O)N[C@H](Cc1c[nH]c2ccccc12)C(=O)N[C@@H](CC(=O)O)C(=O)N[C@@H](CCCNC(=N)N)C(=O)N[C@@H](Cc1ccccc1)C(=O)NCC(=O)O [CTX-1547, Met-Gly-His-Phe-Arg-D-Trp-Asp-Arg-Phe-Gly] (H-MGHFR[dW]DRFG-OH)	54	8.82
